# From patent US8962576B2, “Compositions and method for improving endothelial function and cardiovascular health” (Natreon, Inc., priority 2012, dated 2015)
# Where “and” joins values, the source holds several entries; their conditions need not be identical. Equal values may be shown once.
# Key:
# Type in all cases: in vivo, human
# [1] = system: platelet aggregation; assay: Platelet aggregation with ADP, dual channel aggregometer, study (a)
# Description: Evaluation of Platelet Aggregation.
# The platelet aggregation was determined by the following procedure using Wheecon chronologue dual channel platelet aggregometer (Wheecon Instruments Pvt. Ltd., Chemai, Tamilnadu, India). The percentage decrease in platelet aggregation was recorded at baseline and 3 hours post treatment. Approximately 9 ml of blood sample was collected in a 10 ml plastic test tube containing 1 ml of 3.8% Sodium Citrate from the cubital vein of the subject at baseline and after 3 hours post treatment in all the groups. The test was performed immediately within a time period of one and half hours from collection. The samples were centrifuged at 800 rpm for 15 minutes to obtain a platelet-rich plasma. A portion of the same sample was centrifuged at 2500 rpm for 10 minutes so as to get a platelet-poor plasma sample. The aggregometer was switched about 30 minutes before the test to allow the heating block to warm up to 37° C. Then the test was performed in duplicate by taking 0.5 ml of platelet-rich plasma using 5 μl of adenosine di-phosphate (ADP) solution (2 μgm/ml) in cuvettes containing magnetic stir bars. The speed of stir bars were adjusted at 1200 rpm so as to facilitate the aggregation of the platelets. The platelet-poor plasma sample was kept as reference. The readings were recorded at baseline and after treatment with ADP. The percentage aggregation at baseline and the percentage inhibition of platelet aggregation on post treatment with all the four treatments was calculated.
# [2] = system: Type 2 Diabetic Subjects; assay: Endothelial function: reflection index (RI), salbutamol challenge test, study (a); conditions: Sensoril or Capros 250 mg twice daily, Atorvastatin 10 mg at night; for Abs Change in RI(%) Post Salbutamol challenge: n = 10
# From the text: Procedure for Assessment of Endothelial Function by Determination of Reflection Index (RI).
# A salbutamol (albuterol) challenge test employing digital volume plethysmography was used to assess endothelial function as reported by Chowienczyk et al., “Photoplethysmographic assessment of pulse wave reflection: blunted response to endothelium dependant beta 2-adrenergic vasodilation in type 2 diabetes mellitus,” J. Am. Coll. Cardiol. (1999 December) 34(7):2007-14; and Naidu, et al., “Comparison of two β2 adrenoceptor agonists by different routes of administration to assess human endothelial function,” Indian J. Pharmacol. (2007) 39:168-9. The patients were examined in supine position after 5 minutes of rest. A digital volume pulse (DVP) was obtained using a photo plethysmograph (Pulse Trace PCA2, PT200, Micro Medical, Gallingham, Kent, UK) transmitting infrared light at 940 nm, placed on the index finger of the right hand. The signal from the plethysmograph was digitized using a 12 bit analogue to digital converter with a sampling frequency of 100 Hz. DVP waveforms were recorded over 20 second period and the height of the late systolic/early diastolic portion of the DVP was expressed as a percentage of the amplitude of the DVP to yield the reflection index (RI), per the procedure described in detail by Millasseau et al., “Determination of age related increases in large artery stiffness by digital pulse contour analysis,” Clinical Science (2002) 103: 371-377. Three DVP recordings were taken, and measurements of reflection index (RI) were calculated and the mean value was determined. Patients were then administered 400 μg of salbutamol by inhalation. After 15 minutes three measurements of RI were obtained again and the difference in mean RI before and after administration of salbutamol was used for assessing endothelial function. A change of ≦6% in RI post-salbutamol was considered as endothelial dysfunction.
# [3] = system: Type 2 Diabetic Subjects; assay: Lipid profile, study (c); conditions: CAPROS 250 mg twice daily, Atorvastatin 10 mg daily, n = 20
# From the text: After screening, all the eligible subjects were randomized to receive either one of the four treatments for a duration of 12 weeks, as follows.
# All the subjects had undergone complete physical examination, safety lab evaluations at baseline and at the end of the treatment. Samples were collected after an overnight fast of 12 hrs after the last dose of medication for determination of haemoglobin, HbA1c, blood urea and serum creatinine, liver function test, and lipid profile (Total cholesterol (TC), High density lipoprotein cholesterol (HDL-C), low density lipoprotein cholesterol (LDL-C)), and results obtained using appropriate standard techniques.
# [4] = system: Type 2 Diabetic Subjects; assay: Biomarkers of oxidative stress (NO, MDA, Glutathione), study (a); conditions: Sensoril or Capros 250 mg twice daily, Atorvastatin 10 mg at night; for Glutathione / MDA / NO: n = 10
# Description: […]. (April 2004) 36(2): 76-79. Glutathione levels were determined as described in G. L. Ellman, Arch. Biochem. Biophys. (1959) 82: 70-77 (original determination). Nitric oxide levels were estimated spectrophotometrically as described in Miranda, et al., “A Rapid, Simple Spectrophotometric Method for Simultaneous Detection of Nitrate and Nitrite,” NITRIC OXIDE: Biology and Chemistry (2001) Vol. 5, No. 1, pp. 62-71.
smiles,measurement,setting,value
CC(C)c1c(C(=O)Nc2ccccc2)c(-c2ccccc2)c(-c2ccc(F)cc2)n1CC[C@@H](O)C[C@@H](O)CC(=O)O [Atorvastatin],% Inhibition of Platelet Aggregation,"[1]; 3 hours post treatment, ADP, n = 10",7.11%
same,platelet aggregation,"[1]; Post treatment, 3 hours post treatment, ADP, n = 10",62.00±12.81%
same,platelet aggregation,"[1]; Pre treatment (baseline), ADP, n = 10",66.50±11.00%
same,reduction of ADP induced platelet aggregation,"[1]; earlier study, results in Table V",did not produce significant reduction
same,Abs Change in RI(%) Post Salbutamol challenge,"[2]; Post treatment, 12 weeks",−11.04% and −11.04 ± 5.48 %
same,Abs Change in RI(%) Post Salbutamol challenge,[2]; Pre treatment,−2.45% and −2.45 ± 0.64%
same,Mean % change in Abs Change in RI (%) Post Salbutamol challenge,[2]; after 12 weeks of treatment,336.1 ± 235.2%
same,Absolute change in HDL-C,[3]; 12 weeks,7.52 ± 7.00 mg/dL
same,Absolute change in LDL-C,[3]; 12 weeks,-47.48 ± 24.19 mg/dL
same,Absolute change in Total Cholesterol,[3]; 12 weeks,-48.11 ± 36.87 mg/dL
same,Absolute change in Triglycerides,[3]; 12 weeks,-48.54 ± 50.09 mg/dL
same,Absolute change in VLDL-C,[3]; 12 weeks,-5.30 ± 4.70 mg/dL
same,Mean percentage change in HDL-C,[3]; 12 weeks,21.16 ± 20.49%
same,Mean percentage change in LDL-C,[3]; 12 weeks,−35.00 ± 14.34%
same,Mean percentage change in Total Cholesterol,[3]; 12 weeks,−24.68 ± 14.38%
same,Mean percentage change in Triglycerides,[3]; 12 weeks,−25.02 ± 25.34%
same,Mean percentage change in VLDL-C,[3]; 12 weeks,−18.24 ± 17.10%
same,HDL-C,"[3]; Post TT, 12 weeks",47.95 ± 5.34 mg/dL
same,LDL-C,"[3]; Post TT, 12 weeks",78.50 ± 16.71 mg/dL
same,Total Cholesterol,"[3]; Post TT, 12 weeks",135.6 ± 26.94 mg/dL
same,Triglycerides,"[3]; Post TT, 12 weeks",106.5 ± 30.79 mg/dL
same,VLDL-C,"[3]; Post TT, 12 weeks",19.90 ± 3.64 mg/dL
same,HDL-C,[3]; Pre TT,40.44 ± 6.76 mg/dL
same,LDL-C,[3]; Pre TT,126.00 ± 34.90 mg/dL
same,Total Cholesterol,[3]; Pre TT,183.7 ± 37.41 mg/dL
same,Triglycerides,[3]; Pre TT,155.0 ± 56.51 mg/dL
same,VLDL-C,[3]; Pre TT,25.20 ± 6.57 mg/dL
same,Glutathione,"[4]; Post treatment, 12 weeks",721.6 ± 116.9 µmol/L
same,MDA,"[4]; Post treatment, 12 weeks",2.13 ± 0.48 nmol/mL
same,NO,"[4]; Post treatment, 12 weeks",68.89 ± 11.54 µmol/L
same,Glutathione,[4]; Pre treatment,530.8 ± 168.4 µmol/L
same,MDA,[4]; Pre treatment,3.48 ± 0.73 nmol/mL
same,NO,[4]; Pre treatment,42.24 ± 6.771 µmol/L
same,Mean % change in Glutathione,[4]; after 12 weeks of treatment,51.77% and 51.77 ± 62.72%
same,Mean % change in MDA,[4]; after 12 weeks of treatment,−38.05% and −38.05 ± 10.43%
same,Mean % change in NO,[4]; after 12 weeks of treatment,64.71% and 64.71 ± 27.25%
